The target in the assay is T1, recombinant His-tagged cytoplasmic domains of TRKA receptor (NTRK1, PV3144, aa 441-796) (Homo sapiens, UniProt P04629).
T1 construct: aa 441-796; His; purchased Invitrogen PV3144
T1 sequence (P04629 441-796): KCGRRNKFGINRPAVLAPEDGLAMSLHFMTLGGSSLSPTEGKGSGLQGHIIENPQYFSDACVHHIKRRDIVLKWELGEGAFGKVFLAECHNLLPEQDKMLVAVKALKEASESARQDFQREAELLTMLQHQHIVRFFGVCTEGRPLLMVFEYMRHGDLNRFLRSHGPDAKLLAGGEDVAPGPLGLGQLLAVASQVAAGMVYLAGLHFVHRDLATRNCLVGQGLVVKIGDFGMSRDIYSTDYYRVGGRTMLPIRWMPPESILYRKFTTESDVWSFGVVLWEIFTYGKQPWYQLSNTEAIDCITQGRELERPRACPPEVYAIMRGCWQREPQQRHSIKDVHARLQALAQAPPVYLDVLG
Nature of the assay: Isolated TRK enzyme assay (HTRF KinEASE-TK, PV3144 TrkA enzyme assay). It counts as biochemical. Particulars: 4 nM enzyme, 40 uM ATP, 35 min, arithmetic mean where more than one reading. The method in brief: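 Enzyme and ATP were preincubated with compound for 20 min at room temperature in buffer with 10 mM MgCl and 2 mM DTT. TK-substrate-Biotin was then added (1 uM final) and the reaction run for an enzyme-specific optimized time. Phosphorylation was read by HTRF, and IC50 values came from sigmoid fits of percent inhibition normalized to plate controls, averaged over replicate readings.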
Consider `NC(=O)c1cc(-c2cn[nH]c2)ccc1O[C@@H]1CCN(C(=O)Cc2ccc(OC(F)(F)F)cc2)C[C@@H]1F` [Example 73, 2-{[(3S,4R)-3-fluoro-1-{[4-(trifluoromethoxy)phenyl]acetyl}piperidin-4-yl]oxy}-5-(1H-pyrazol-4-yl)benzamide], for which the IC50 (commonly the concentration that inhibits the measured activity by half) turned out to be 0.9 nM. Turning to `Cn1cc(-c2ccc(OC3CCN(C(=O)Nc4ccc(OC(F)(F)F)cc4F)CC3)c(C(N)=O)c2)cn1` [Example 140, 4-(2-carbamoyl-4-(1-methyl-1H-pyrazol-4-yl)phenoxy)-N-(2-fluoro-4-(trifluoromethoxy)phenyl)piperidine-1-carboxamide], the IC50 came out at 10.3 nM. The result for `N#Cc1cc(-c2ccc(OC3CCN(C(=O)Cc4ccc(OC(F)(F)F)cc4)CC3)c(C(N)=O)c2)cs1` [Example 144, 5-(5-cyanothiophen-3-yl)-2-[(1-{[4-(trifluoromethoxy)phenyl]acetyl}piperidin-4-yl)oxy]benzamide] reads 16.7 nM. The same measure for `CC(C)(O)Cn1cc(-c2cnc(O[C@H]3CCN(C(=O)Cc4ccc(OC5CC5)cn4)C[C@@H]3F)c(C(N)=O)c2)cn1` [Example 163, 2-{[(3S,4S)-1-{[5-(cyclopropyloxy)pyridin-2-yl]acetyl}-3-fluoropiperidin-4-yl]oxy}-5-[1-(2-hydroxy-2-methylpropyl)-1H-pyrazol-4-yl]pyridine-3-carboxamide]: 16.6 nM.

Regarding `Cc1nc(C)c(-c2ccc(OC3CCN(C(=O)Cc4ccc(OC(F)(F)F)cc4)CC3)c(C(N)=O)c2)s1` [Example 143, 5-(2,4-dimethyl-1,3-thiazol-5-yl)-2-[(1-{[4-(trifluoromethoxy)phenyl]acetyl}piperidin-4-yl)oxy]benzamide], the half-maximal inhibitory concentration (IC50) was found to be 16.5 nM.

Regarding `Cn1cnc(-c2ccc(OC3CCN(C(=O)Cc4ccc(OC5CC5)cc4)CC3)c(C(N)=O)c2)c1` [Example 17, 2-[(1-{[4-(cyclopropyloxy)phenyl]acetyl}piperidin-4-yl)oxy]-5-(1-methyl-1H-imidazol-4-yl)benzamide], the IC50 amounted to 10.4 nM. For `Cc1nn(C[C@H](O)CO)c(C)c1-c1ccc(OC2CCN(C(=O)Cc3ccc(OC(F)(F)F)cc3)CC2)c(C(N)=O)c1` [Example 124], the 50% inhibitory concentration (IC50) was 7.4 nM. The same measure for `NC(=O)c1cc(-c2c[nH]c(C3(O)COC3)n2)ccc1OC1CCN(C(=O)Cc2ccc(OC(F)(F)F)cc2)CC1` [Example 56, 5-[2-(3-hydroxyoxetan-3-yl)-1H-imidazol-5-yl]-2-[(1-{[4-(trifluoromethoxy)phenyl]acetyl}piperidin-4-yl)oxy]benzamide]: 5.1 nM.

As to `CC(C)c1ccc(CC(=O)N2CCC(Oc3ccc(-c4cnn(C)c4)cc3C(N)=O)CC2)cc1` [Example 109, 5-(1-methyl-1H-pyrazol-4-yl)-2-[(1-{[4-(propan-2-yl)phenyl]acetyl}piperidin-4-yl)oxy]benzamide], the 50% inhibitory concentration (IC50) stood at 7.1 nM.

With `Cn1cnc(-c2ccc(O[C@@H]3CCN(C(=O)Cc4ccc(OC(F)(F)F)cc4)C[C@@H]3F)c(C(N)=O)c2)c1` (racemic) [Example 52, 1:1 racemic mixture of 2-(((3S,4R)-3-fluoro-1-(2-(4-(trifluoromethoxy)phenyl)acetyl)piperidin-4-yl)oxy)-5-(1-methyl-1H-imidazol-4-yl)benzamide + (3R,4S) enantiomer], the concentration for half-maximal inhibition (IC50) came out at 4.5 nM. The same measure for `Cn1cc(-c2cnc(O[C@@H]3CCN(C(=O)Cc4ccc(OC(F)(F)F)cc4)C[C@@H]3F)c(C(N)=O)c2)cn1` [Example 71, 2-{[(3S,4R)-3-fluoro-1-{[4-(trifluoromethoxy)phenyl]acetyl}piperidin-4-yl]oxy}-5-(1-methyl-1H-pyrazol-4-yl)pyridine-3-carboxamide]: 1.3 nM. Consider `Cn1cc(-c2ccc(OC3CCN(C(=O)Cc4ccc(C(C)(C)C)nc4)CC3)c(C(N)=O)c2)cn1` [Example 18, 2-({1-[(6-tert-butylpyridin-3-yl)acetyl]piperidin-4-yl}oxy)-5-(1-methyl-1H-pyrazol-4-yl)benzamide], for which the IC50 turned out to be 8.9 nM. The result for `CC(C)(O)Cn1cc(-c2cnc(O[C@H]3CCN(C(=O)Cc4ccc(OC5CC5)cn4)C[C@H]3F)c(C(N)=O)c2)cn1` [Example 33, 2-{[(3R,4S)-1-{[5-(cyclopropyloxy)pyridin-2-yl]acetyl}-3-fluoropiperidin-4-yl]oxy}-5-[1-(2-hydroxy-2-methylpropyl)-1H-pyrazol-4-yl]pyridine-3-carboxamide] reads 4.9 nM; that for `Cc1n[nH]c(C)c1-c1cnc(O[C@@H]2CCN(C(=O)Cc3ccc(OC4CC4)cn3)C[C@@H]2F)c(C(N)=O)c1` [Example 79, 2-{[(3S,4R)-1-{[5-(cyclopropyloxy)pyridin-2-yl]acetyl}-3-fluoropiperidin-4-yl]oxy}-5-(3,5-dimethyl-1H-pyrazol-4-yl)pyridine-3-carboxamide], 6.9 nM. With `Cn1cnc(-c2ccc(O[C@H]3CCN(C(=O)Cc4ccc(OC(F)(F)F)cc4)C[C@@H]3F)c(C(N)=O)c2)c1` (single isomer, unassigned) [Example 8], the IC50 is 1.5 nM.

In the case of `Cn1cncc1-c1ccc(OC2CCN(C(=O)Cc3ccc(OC(F)(F)F)cc3)CC2)c(C(N)=O)c1` [Example 145, 5-(1-methyl-1H-imidazol-5-yl)-2-[(1-{[4-(trifluoromethoxy)phenyl]acetyl}piperidin-4-yl)oxy]benzamide], the half-maximal inhibitory concentration (IC50) is 17.1 nM. The same measure for `NC(=O)c1cc(-c2c[nH]cn2)ccc1OC1CCN(C(=O)Cc2ccc(OC(F)(F)F)cc2)CC1` [Example 127, 5-(1H-imidazol-4-yl)-2-[(1-{[4-(trifluoromethoxy)phenyl]acetyl}piperidin-4-yl)oxy]benzamide]: 5.5 nM. The same measure for `NC(=O)c1cc(-c2cn[nH]c2)ncc1OC1CCN(C(=O)Cc2ccc(OC(F)(F)F)c(F)c2)CC1` [Example 169, 5-[(1-{[3-fluoro-4-(trifluoromethoxy)phenyl]acetyl}piperidin-4-yl)oxy]-2-(1H-pyrazol-4-yl)pyridine-4-carboxamide]: 11.8 nM; for `NC(=O)c1cc(-c2ccn(CCO)n2)ccc1OC1CCN(C(=O)Cc2ccc(OC(F)(F)F)cc2)CC1` [Example 90, 5-[1-(2-hydroxyethyl)-1H-pyrazol-3-yl]-2-[(1-{[4-{trifluoromethoxy)phenyl]acetyl}piperidin-4-yl)oxy]benzamide]: 4.2 nM; for `Cn1cnc(-c2cnc(O[C@H]3CCN(C(=O)Cc4ccc(OC5CC5)cn4)C[C@@H]3F)c(C(N)=O)c2)c1` [Example 31, 2-{[(3S,4S)-1-{[5-(cyclopropyloxy)pyridin-2-yl]acetyl}-3-fluoropiperidin-4-yl]oxy}-5-(1-methyl-1H-imidazol-4-yl)pyridine-3-carboxamide]: 9 nM. Take `Cn1cnc(-c2cnc(O[C@H]3CCN(C(=O)Cc4ccc(OC5CC5)cc4)C[C@@H]3F)c(C(N)=O)c2)c1` [Example 27, 2-{[(3S,4S)-1-{[4-(cyclopropyloxy)phenyl]acetyl}-3-fluoropiperidin-4-yl]oxy}-5-(1-methyl-1H-imidazol-4-yl)pyridine-3-carboxamide]: the 50% inhibitory concentration (IC50) was determined as 2.1 nM. The result for `CC(N)c1ccc(-c2ccc(OC3CCN(C(=O)Cc4ccc(OC(F)(F)F)cc4)CC3)c(C(N)=O)c2)cc1` (racemic) [Example 103, Racemic 4′-(1-aminoethyl)-4-[(1-{[4-(trifluoromethoxy)phenyl]acetyl}piperidin-4-yl)oxy]biphenyl-3-carboxamide] reads 2.7 nM; that for `Cn1cnc(-c2ccc(OC3CCN(C(=O)Cc4ccc(OC(C)(F)F)cn4)CC3)c(C(N)=O)c2)c1` [Example 168, 2-[(1-{[5-(1,1-difluoroethoxy)pyridin-2-yl]acetyl}piperidin-4-yl)oxy]-5-(1-methyl-1H-imidazol-4-yl)benzamide], 17.3 nM; that for `Cn1cc(-c2cnc(O[C@@H]3CCN(C(=O)Cc4ccc(OC(F)(F)F)cc4)C[C@@H]3F)c(C(N)=O)c2)nn1` [Example 155, 2-[((3S,4R)-3-fluoro-1-{[4-(trifluoromethoxy)phenyl]acetyl}piperidin-4-yl)oxy]-5-(1-methyl-1H-1,2,3-triazol-4-yl)pyridine-3-carboxamide], 2.45 nM. The result for `Cc1n[nH]c(C)c1-c1cnc(O[C@H]2CCN(C(=O)Cc3ccc(OC4CC4)cn3)C[C@@H]2F)c(C(N)=O)c1` [Example 167, 2-{[(3S,4S)-1-{[5-(cyclopropyloxy)pyridin-2-yl]acetyl}-3-fluoropiperidin-4-yl]oxy}-5-(3,5-dimethyl-1H-pyrazol-4-yl)pyridine-3-carboxamide] reads 19.4 nM; that for `Cc1nc(-c2ccc(OC3CCN(C(=O)Cc4ccc(OC(F)(F)F)cc4)CC3)c(C(N)=O)c2)c[nH]1` [Example 146, 5-(2-methyl-1H-imidazol-4-yl)-2-[(1-{[4-(trifluoromethoxy)phenyl]acetyl}piperidin-4-yl)oxy]benzamide], 11.6 nM. Turning to `C[C@@H](CO)n1cc(-c2ccc(OC3CCN(C(=O)Cc4ccc(OC(F)(F)F)cc4)CC3)c(C(N)=O)c2)cn1` [Example 131, 5-{1-[(2S)-1-hydroxypropan-2-yl]-1H-pyrazol-4-yl}-2-[(1-{[4-(trifluoromethoxy)phenyl]acetyl}piperidin-4-yl)oxy]benzamide], the half-maximal inhibitory concentration (IC50) was 4.4 nM. The result for `NC(=O)c1cc(-c2cnn(C3COC3)c2)ccc1OC1CCN(C(=O)Cc2ccc(OC(F)(F)F)cc2)CC1` [Example 57, 5-[1-(oxetan-3-yl)-1H-pyrazol-4-yl]-2-[(1-{[4-(trifluoromethoxy)phenyl]acetyl}piperidin-4-yl)oxy]benzamide] reads 2.6 nM; that for `CS(=O)(=O)Cn1cc(-c2cnc(O[C@H]3CCN(C(=O)Cc4ccc(OC(F)(F)F)cc4)C[C@@H]3F)c(C(N)=O)c2)cn1` [Example 25, 2-{[(3S,4S)-3-fluoro-1-{[4-(trifluoromethoxy)phenyl]acetyl}piperidin-4-yl]oxy}-5-{1-[(methylsulfonyl)methyl]-1H-pyrazol-4-yl}pyridine-3-carboxamide], 3.7 nM.

(Values after patent publication US20170305857A1, “N-ACYLPIPERIDINE ETHER TROPOMYOSIN-RELATED KINASE INHIBITORS” (Pfizer Limited, priority 2014, published 2017).)
